Data: patent US9771341B2, “Piperazine carbamates and methods of making and using same” (Abide Therapeutics, Inc., priority 2015, dated 2017)

Key:
[1] = target: T1, MAGL (Mus musculus, UniProt O35678); test: In vitro competitive activity-based protein profiling (mouse), MAGL; assay type: biochemical; conditions: for inhibition at 1 µM: mouse proteome, in vitro, read-out: % Inhibition at 1 μM MAGL; for IC50: mouse brain membrane fraction or cell lysates, 30 min preincubation at 37° C, FP-Rh probe
T1 construct: Proteomes (mouse brain membrane fraction or cell lysates); from tissue; host or cells: mouse brain membrane fraction (or unspecified cell lysates)
T1 sequence (O35678 1-303): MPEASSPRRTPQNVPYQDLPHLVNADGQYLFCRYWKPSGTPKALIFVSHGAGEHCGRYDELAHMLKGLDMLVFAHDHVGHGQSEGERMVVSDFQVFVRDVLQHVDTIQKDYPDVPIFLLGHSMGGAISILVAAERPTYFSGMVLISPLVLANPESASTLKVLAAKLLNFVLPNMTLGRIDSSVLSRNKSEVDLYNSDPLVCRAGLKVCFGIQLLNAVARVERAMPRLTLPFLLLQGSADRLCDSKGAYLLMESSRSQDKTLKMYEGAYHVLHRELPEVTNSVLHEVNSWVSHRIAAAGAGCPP
Protocol: (§1) In Vitro Competitive Activity-Based Protein Profiling (Mouse).
(§2) Proteomes (mouse brain membrane fraction or cell lysates) (50 μL, 1.0 mg/mL total protein concentration) were preincubated with varying concentrations of inhibitors at 37° C. After 30 min, FP-Rh (1.0 μL, 50 μM in DMSO) was added and the mixture was incubated for another 30 min at 37° C. Reactions were quenched with SDS loading buffer (50 μL-4×) and run on SDS-PAGE.

[2] = target: T2, ABHD6 (Mus musculus, UniProt Q8R2Y0); test: Mouse brain proteomes from inhibitor treated mice, ABHD6; assay type: in vivo; conditions: 5 mg/kg oral gavage, C57Bl/6J mice, brain proteome 4 h after administration
T2 construct: Proteomes (mouse brain membrane fraction or cell lysates); from tissue; host or cells: mouse brain membrane fraction (or unspecified cell lysates)
T2 sequence (Q8R2Y0 1-336): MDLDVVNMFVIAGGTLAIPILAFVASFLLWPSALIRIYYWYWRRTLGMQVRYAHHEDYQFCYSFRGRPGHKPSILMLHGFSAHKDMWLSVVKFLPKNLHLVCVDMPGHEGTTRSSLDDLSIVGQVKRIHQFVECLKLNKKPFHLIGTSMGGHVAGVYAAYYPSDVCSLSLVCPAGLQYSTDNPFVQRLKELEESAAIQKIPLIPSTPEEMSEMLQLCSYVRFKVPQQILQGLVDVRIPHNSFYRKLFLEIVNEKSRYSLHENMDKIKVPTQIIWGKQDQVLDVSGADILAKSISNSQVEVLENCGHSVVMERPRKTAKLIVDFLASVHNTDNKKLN
Protocol: (§3) Preparation of Mouse Brain Proteomes from Inhibitor Treated Mice.
(§4) Inhibitors were administered to wild-type C57Bl/6J by oral gavage in a vehicle of polyethylene glycol.

[3] = target: T1, MAGL; test: Mouse brain proteomes from inhibitor treated mice, MAGL; assay type: in vivo; conditions: 5 mg/kg oral gavage, C57Bl/6J mice, brain proteome 4 h after administration
Protocol: as §3, §4

[4] = target: T2, ABHD6; test: In vitro competitive activity-based protein profiling (mouse), ABHD6; assay type: biochemical; conditions: for inhibition at 1 µM: mouse proteome, in vitro, read-out: % Inhibition at 1 μM ABHD6; for IC50: mouse brain membrane fraction or cell lysates, 30 min preincubation at 37° C, FP-Rh probe
Protocol: as §1, §2

[5] = target: T3, FAAH (Mus musculus, UniProt O08914); test: Mouse brain proteomes from inhibitor treated mice, FAAH; assay type: in vivo; conditions: 5 mg/kg oral gavage, C57Bl/6J mice, brain proteome 4 h after administration
T3 construct: Proteomes (mouse brain membrane fraction or cell lysates); from tissue; host or cells: mouse brain membrane fraction (or unspecified cell lysates)
T3 sequence (O08914 1-579): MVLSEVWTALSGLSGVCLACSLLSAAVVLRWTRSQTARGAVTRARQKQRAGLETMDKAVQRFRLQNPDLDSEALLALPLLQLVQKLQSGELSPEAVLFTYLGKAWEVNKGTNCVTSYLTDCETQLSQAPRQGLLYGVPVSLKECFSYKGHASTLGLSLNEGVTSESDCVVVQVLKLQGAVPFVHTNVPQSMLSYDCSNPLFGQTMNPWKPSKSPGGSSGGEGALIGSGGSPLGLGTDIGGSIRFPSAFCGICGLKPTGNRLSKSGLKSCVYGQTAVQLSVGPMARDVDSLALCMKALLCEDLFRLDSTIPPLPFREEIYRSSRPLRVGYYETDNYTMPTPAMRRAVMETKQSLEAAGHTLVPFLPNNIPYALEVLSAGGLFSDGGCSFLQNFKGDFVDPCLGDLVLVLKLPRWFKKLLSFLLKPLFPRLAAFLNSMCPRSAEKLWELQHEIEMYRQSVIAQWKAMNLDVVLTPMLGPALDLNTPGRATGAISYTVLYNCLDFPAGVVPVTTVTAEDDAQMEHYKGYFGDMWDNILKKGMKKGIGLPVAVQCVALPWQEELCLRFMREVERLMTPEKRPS
Protocol: as §3
Inhibitors were administered to wild-type C57Bl/6J by oral gavage in a vehicle of polyethylene glycol. Each animal was sacrificed 4 h following administration and brain proteomes were prepared and analyzed according to previously established methods (See Niphakis, M. J., et al. (2011) ACS Chem. Neurosci. and Long, J. Z., et al. Nat. Chem. Biol. 5:37-44)

[6] = target: T3, FAAH; test: In vitro competitive activity-based protein profiling (mouse), FAAH; assay type: biochemical; conditions: for inhibition at 1 µM: mouse proteome, in vitro; for IC50: mouse brain membrane fraction or cell lysates, 30 min preincubation at 37° C, FP-Rh probe
Procedure, shortened: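 Mouse brain membrane fraction or cell lysates (1.0 mg/mL protein) preincubated with inhibitors 30 min at 37° C, then FP-Rh probe 30 min at 37° C. SDS-PAGE fluorescence band intensity gave FAAH activity.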

inhibition at 1 µM [1] [%]	IC50 [1] [nM]	inhibition at 5 mg/kg [2] [%]	inhibition at 5 mg/kg [3] [%]	inhibition at 1 µM [4] [%]	IC50 [4] [nM]	inhibition at 5 mg/kg [5] [%]	inhibition at 1 µM [6] [%]	IC50 [6] [nM]	SMILES
> 75	< 100	< 25	< 25	< 25	> 1000	< 25	< 25	> 1000	O=C(OC(C(F)(F)F)C(F)(F)F)N1CCN(Cc2cccc(OC(F)(F)F)c2N2CCC(N3CCCC3)CC2)CC1 [Example 32, 1,1,1,3,3,3-hexafluoropropan-2-yl 4-(2-(4-(pyrrolidin-1-yl)piperidin-1-yl)-3-(trifluoromethoxy)benzyl)piperazine-1-carboxylate]
> 75	< 100	> 75	> 75	> 75	100 to 1000	< 25	< 25	> 1000	NC(=O)C1CCN(c2cc(Cl)ccc2CN2CCN(C(=O)OC(C(F)(F)F)C(F)(F)F)CC2)CC1 [Example 33, 1,1,1,3,3,3-hexafluoropropan-2-yl 4-(2-(4-carbamoylpiperidin-1-yl)-4-chlorobenzyl)piperazine-1-carboxylate]
> 75	< 100	< 25	> 75	< 25	> 1000	< 25	< 25	> 1000	CN(C)C(=O)C1CCN(c2cc(C(F)(F)F)ccc2CN2CCN(C(=O)OC(C(F)(F)F)C(F)(F)F)CC2)CC1 [Example 35, 1,1,1,3,3,3-hexafluoropropan-2-yl 4-(2-(4-(dimethylcarbamoyl)piperidin-1-yl)-4-(trifluoromethyl)benzyl)piperazine-1-carboxylate]
> 75	< 100	25 to 75	> 75	25 to 75	> 1000	< 25	< 25	> 1000	CS(=O)(=O)N[C@@H]1CCN(c2cc(Cl)ccc2CN2CCN(C(=O)OC(C(F)(F)F)C(F)(F)F)CC2)C1 [Example 39, 1,1,1,3,3,3-hexafluoropropan-2-yl (R)-4-(4-chloro-2-(3-(methylsulfonamido)pyrrolidin-1-yl)benzyl)piperazine-1-carboxylate]
> 75	< 100	< 25	> 75	< 25	> 1000	< 25	< 25	> 1000	CS(=O)(=O)N[C@H]1CCN(c2cc(Cl)ccc2CN2CCN(C(=O)OC(C(F)(F)F)C(F)(F)F)CC2)C1 [Example 40, 1,1,1,3,3,3-hexafluoropropan-2-yl (S)-4-(4-chloro-2-(3-(methylsulfonamido)pyrrolidin-1-yl)benzyl)piperazine-1-carboxylate]
> 75	< 100	< 25	> 75	25 to 75	> 1000	< 25	< 25	> 1000	O=C(OC(C(F)(F)F)C(F)(F)F)N1CCN(Cc2ccc(Cl)cc2N2CC[C@@H](N3CCCC3=O)C2)CC1 [Example 41, 1,1,1,3,3,3-hexafluoropropan-2-yl (R)-4-(4-chloro-2-(2-oxo-[1,3′-bipyrrolidin]-1′-yl)benzyl)piperazine-1-carboxylate]
> 75	< 100	< 25	> 75	25 to 75	100 to 1000	< 25	< 25	> 1000	O=C(OC(C(F)(F)F)C(F)(F)F)N1CCN(Cc2ccc(Cl)cc2N2CC[C@H](N3CCCC3=O)C2)CC1 [Example 42, 1,1,1,3,3,3-hexafluoropropan-2-yl (S)-4-(4-chloro-2-(2-oxo-[1,3′-bipyrrolidin]-1′-yl)benzyl)piperazine-1-carboxylate]
> 75	< 100	< 25	25 to 75	< 25	> 1000	< 25	< 25	> 1000	O=C(OC(C(F)(F)F)C(F)(F)F)N1CCN(Cc2ccc(Cl)cc2N2CC[C@@H](N3CCCCC3=O)C2)CC1 [Example 43, 1,1,1,3,3,3-hexafluoropropan-2-yl (R)-4-(4-chloro-2-(3-(2-oxopiperidin-1-yl)pyrrolidin-1-yl)benzyl)piperazine-1-carboxylate]
> 75	< 100	< 25	< 25	< 25	> 1000	< 25	< 25	> 1000	O=C(OC(C(F)(F)F)C(F)(F)F)N1CCN(Cc2ccc(Cl)cc2N2CC[C@H](N3CCCCC3=O)C2)CC1 [Example 44, 1,1,1,3,3,3-hexafluoropropan-2-yl (S)-4-(4-chloro-2-(3-(2-oxopiperidin-1-yl)pyrrolidin-1-yl)benzyl)piperazine-1-carboxylate]
> 75	< 100	< 25	25 to 75	> 75	100 to 1000	< 25	< 25	> 1000	O=C(OC(C(F)(F)F)C(F)(F)F)N1CCN(Cc2ccc(Cl)cc2N2CC[C@@H](N3CCCS3(=O)=O)C2)CC1 [Example 45, 1,1,1,3,3,3-hexafluoropropan-2-yl (R)-4-(4-chloro-2-(3-(1,1-dioxidoisothiazolidin-2-yl)pyrrolidin-1-yl)benzyl)piperazine-1-carboxylate]
> 75	< 100	< 25	> 75	< 25	> 1000	< 25	< 25	> 1000	Cc1cccc(CN2CCN(C(=O)OC(C(F)(F)F)C(F)(F)F)CC2)c1N1CCC(NS(C)(=O)=O)CC1 [Example 51, 1,1,1,3,3,3-hexafluoropropan-2-yl 4-(3-methyl-2-(4-(methylsulfonamido)piperidin-1-yl)benzyl)piperazine-1-carboxylate]
> 75	< 100	< 25	> 75	< 25	> 1000	< 25	< 25	> 1000	Cc1ccc(CN2CCN(C(=O)OC(C(F)(F)F)C(F)(F)F)CC2)c(N2CC[C@H](CF)C2)c1 [Example 53, 1,1,1,3,3,3-hexafluoropropan-2-yl (S)-4-(2-(3-(fluoromethyl)pyrrolidin-1-yl)-4-methylbenzyl)piperazine-1-carboxylate]
